According to patent publication US9271963B2, “Selective inhibitors of human corticosteroid synthases” (UNIVERSITAT DES SAARLANDES, priority 2005, dated 2016):
Read-outs that look alike come from different tables or passages of the source.

How the values were obtained:
CYP11B2 [1] = molecular target: T1, CYP11B2 (Homo sapiens (Human), UniProt P19099); experiment: Screening test in transgenic fission yeast (S. pombe) expressing human CYP11B2; type: cell-based
CYP11B1 [2] = molecular target: T2, CYP11B1 (Homo sapiens (Human), UniProt P15538); experiment: Inhibition test in V79 MZh11B1 cells (hamster fibroblasts expressing human CYP11B1); type: cell-based
CYP11B2 [3] = molecular target: T1, CYP11B2; experiment: Inhibition test in V79 MZh11B2 cells (hamster fibroblasts expressing human CYP11B2); type: cell-based; conditions: Table 1; deoxycorticosterone substrate 100 nM; read-out: IC50 value V79 11B2 hCYP11B2
human CYP17 = human CYP17 (Homo sapiens (Human), UniProt P05093); experiment: CYP17 inhibition, membrane fraction of E. coli expressing human CYP17; type: biochemical; conditions: Table 1, progesterone 2.5 μM; for IC50: read-out: IC50 Human CYP17 (values in brackets); for inhibition at 2.5 µM: inhibitor 2.5 μM, read-out: % Inhib. Human CYP17
human placental CYP19 = human placental CYP19 (Homo sapiens (Human), UniProt P11511); experiment: CYP19 (aromatase) inhibition, human placental microsomes; type: biochemical; conditions: Table 1, androstenedione 2.5 μM; for % Inhib. Human CYP19 (values in brackets): inhibitor concentration not given
CYP11B1 [4] = molecular target: T2, CYP11B1; conditions: NCI-H295R
CYP11B1 [5] = molecular target: T2, CYP11B1; experiment: cell-based; conditions: NCI-H295R, read-out: NCI-H295R CYP11B1 RSS % inhibition
CYP11B2 [6] = molecular target: T1, CYP11B2; experiment: cell-based; conditions: NCI-H295R
[7] = system: steroid production in H295R cells; experiment: cells; type: cell-based, human; conditions: for aldosterone secretion: within 6 hours; for inhibition at 2.5 µM / IC50: Homo sapiens, NCI-H295R; for inhibition at 2.5 µM: inhibitor 2.5 μM
[8] = Table 1, S. pombe cells expressing human CYP11B2, deoxycorticosterone 100 nM, inhibitor 500 nM, read-out: % Inhib. Human hCYP11B2
[9] = Table 1, deoxycorticosterone substrate 100 nM, read-out: IC50 value V79 11B1 hCYP11B1
[10] = read-out: NCI-H295R CYP11B2 B % inhibition
[11] = read-out: NCI-H295R CYP11B2 DOC % inhibition
[12] = read-out: IC50 in V79MZh 11B1 cells (CYP11B1 inhibition)
[13] = H295R, 6 h incubation, read-out: % inhibition of DHEA production
[14] = H295R, 6 h incubation, read-out: % inhibition of aldosterone production
[15] = H295R, 6 h incubation, read-out: % inhibition of androstendione production
[16] = H295R, 6 h incubation, read-out: % inhibition of cortisol production

human placental CYP19, sequence (P11511 whole entry): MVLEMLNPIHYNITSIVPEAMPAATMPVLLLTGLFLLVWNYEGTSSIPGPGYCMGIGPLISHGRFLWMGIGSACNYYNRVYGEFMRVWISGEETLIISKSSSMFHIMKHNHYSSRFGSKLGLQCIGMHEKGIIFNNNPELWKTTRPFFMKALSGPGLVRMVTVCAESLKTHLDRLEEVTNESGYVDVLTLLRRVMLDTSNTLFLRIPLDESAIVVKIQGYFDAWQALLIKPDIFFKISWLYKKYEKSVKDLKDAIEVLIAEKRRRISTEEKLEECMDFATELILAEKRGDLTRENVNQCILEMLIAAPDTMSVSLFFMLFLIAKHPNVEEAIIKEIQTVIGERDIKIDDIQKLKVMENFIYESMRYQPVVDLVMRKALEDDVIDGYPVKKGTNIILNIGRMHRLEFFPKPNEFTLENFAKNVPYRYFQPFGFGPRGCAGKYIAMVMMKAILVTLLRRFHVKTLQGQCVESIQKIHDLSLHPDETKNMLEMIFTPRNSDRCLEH
human CYP17, sequence (P05093 whole entry): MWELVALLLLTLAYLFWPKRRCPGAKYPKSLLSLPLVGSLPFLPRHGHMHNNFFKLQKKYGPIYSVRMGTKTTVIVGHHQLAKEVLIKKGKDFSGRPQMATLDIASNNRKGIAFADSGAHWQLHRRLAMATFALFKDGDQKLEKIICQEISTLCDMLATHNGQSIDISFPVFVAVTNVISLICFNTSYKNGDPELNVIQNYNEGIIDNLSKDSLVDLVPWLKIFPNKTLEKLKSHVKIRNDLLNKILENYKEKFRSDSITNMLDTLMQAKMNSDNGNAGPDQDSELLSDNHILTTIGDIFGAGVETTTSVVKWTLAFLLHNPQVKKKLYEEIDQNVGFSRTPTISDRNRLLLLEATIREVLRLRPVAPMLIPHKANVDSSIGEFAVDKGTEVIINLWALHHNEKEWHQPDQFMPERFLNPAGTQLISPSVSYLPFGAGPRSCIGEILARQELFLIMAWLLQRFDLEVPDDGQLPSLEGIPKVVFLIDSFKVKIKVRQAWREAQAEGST
T1 sequence (P19099 25-503): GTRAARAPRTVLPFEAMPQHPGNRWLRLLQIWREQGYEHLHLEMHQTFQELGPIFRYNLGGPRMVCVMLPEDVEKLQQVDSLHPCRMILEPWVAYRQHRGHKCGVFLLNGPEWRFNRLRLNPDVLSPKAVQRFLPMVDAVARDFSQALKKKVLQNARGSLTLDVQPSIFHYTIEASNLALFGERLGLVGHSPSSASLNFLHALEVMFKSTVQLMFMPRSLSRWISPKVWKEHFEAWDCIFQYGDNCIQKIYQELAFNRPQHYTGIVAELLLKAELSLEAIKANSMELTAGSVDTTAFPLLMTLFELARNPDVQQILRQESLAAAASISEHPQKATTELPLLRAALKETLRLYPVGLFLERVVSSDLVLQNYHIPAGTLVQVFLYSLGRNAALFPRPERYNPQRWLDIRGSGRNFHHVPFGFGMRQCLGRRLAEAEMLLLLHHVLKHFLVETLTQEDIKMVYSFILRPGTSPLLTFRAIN
T2 sequence (P15538 25-503): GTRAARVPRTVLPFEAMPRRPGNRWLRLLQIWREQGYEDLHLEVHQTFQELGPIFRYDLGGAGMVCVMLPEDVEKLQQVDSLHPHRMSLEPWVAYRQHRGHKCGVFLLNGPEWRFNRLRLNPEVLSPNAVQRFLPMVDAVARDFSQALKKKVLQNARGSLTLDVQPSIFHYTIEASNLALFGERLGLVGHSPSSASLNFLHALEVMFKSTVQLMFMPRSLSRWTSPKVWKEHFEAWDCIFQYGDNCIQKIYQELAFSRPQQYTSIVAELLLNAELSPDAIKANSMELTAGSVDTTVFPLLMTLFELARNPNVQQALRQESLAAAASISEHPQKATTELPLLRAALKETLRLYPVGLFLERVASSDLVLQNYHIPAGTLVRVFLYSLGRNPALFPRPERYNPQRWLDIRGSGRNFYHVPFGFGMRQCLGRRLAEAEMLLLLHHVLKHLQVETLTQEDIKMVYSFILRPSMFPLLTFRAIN

inhibition at 0.5 µM (CYP11B2 [1]; [8]) [%] | IC50 (CYP11B1 [2]; [9]) [nM] | IC50 (CYP11B2 [3]) [nM] | inhibition at 2.5 µM (human CYP17) [%] | IC50 (human placental CYP19) [nM] | SMILES | further results
 |  |  | 40 |  | c1cncc(-c2ccc3ccccc3c2)c1 [Compound 1, 3-(2-Naphthyl)pyridine] | influence on CYP11B1 in comparison with fadrozole (CYP11B1 [4]): clearly lower extent; inhibition at 2.5 µM (CYP11B1 [5]): 43.4 ± 4.7%; inhibition at 2.5 µM (CYP11B2 [6]; [10]): 45.6 ± 2.2%; inhibition at 2.5 µM (CYP11B2 [6]; [11]): 82.9 ± 0.9%
86 | 5020 | 40 | 4 | 129 | COc1cc2ccccc2cc1-n1ccnc1 [Compound 24, 1-(3-Methoxy-2-naphthyl)-1H-imidazole] | 
86 | 569 | 13 | 32 | 1800 | COc1ccc2cc(-c3cccnc3)ccc2c1Cl [Compound 9, 3-(5-Chloro-6-methoxy-2-naphthyl)pyridine] | 
88 | 715 | 23 | 65 |  | Oc1ccc2cc(-c3cccnc3)ccc2c1 [Compound 3, 6-Pyridin-3-yl-2-naphthol] | % Inhib. Human CYP19 (values in brackets) (human placental CYP19): [61] %
16 | 805 |  |  |  | c1ccc2cc(-c3cnco3)ccc2c1 [Compound 29, 5-(2-Naphthyl)-1,3-oxazole] | CYP11B2 inhibition in S. pombe (CYP11B2 [1]): very low; IC50 (CYP11B1 [2]; [12]): 206 to 805 nM
53 |  |  |  |  | c1cncc(-c2ccc3ccccc3n2)c1 [Compound 20, 2-Pyridin-3-ylquinoline] | 
85 | 899 | 15 | 46 |  | Brc1ccc2cc(-c3cccnc3)ccc2c1 [Compound 4, 3-(6-Bromo-2-naphthyl)pyridine] | % Inhib. Human CYP19 (values in brackets) (human placental CYP19): [33] %
46 |  |  |  |  | COc1ccc2ccc(-c3cccnc3)cc2c1 [Compound 13, 3-(7-Methoxy-2-naphthyl)pyridine] | 
98 | 691 | 3 |  |  | N#Cc1ccc2cc(-c3cccnc3)ccc2c1 [Compound 8, 6-Pyridin-3-yl-2-naphthonitrile] | IC50 (human CYP17): 686 nM; % Inhib. Human CYP19 (values in brackets) (human placental CYP19): [44] %

Further lines, the compound ahead of its results:

SMILES | inhibition at 0.5 µM (CYP11B2 [1]; [8]) [%] | IC50 (CYP11B1 [2]; [9]) [nM] | IC50 (CYP11B2 [3]) [nM] | inhibition at 2.5 µM (human CYP17) [%] | IC50 (human placental CYP19) [nM] | further results
C1=C(n2ccnc2)CCc2ccccc21 [Compound 45, 1-(3,4-Dihydronaphthalene-2-yl)-1H-imidazole] |  |  |  |  |  | CYP11B2 inhibition in S. pombe (CYP11B2 [1]): very low; inhibition at 0.5 µM (CYP11B2 [1]; Table 2, S. pombe cells expressing human CYP11B2, deoxycorticosterone 100 nM, inhibitor 500 nM, read-out: % Inhibition Human hCYP11B2): 34%
COc1ccc2ccc(-c3cccnc3)c(Cl)c2c1 [Compound 14, 3-(1-Chloro-7-methoxy-2-naphthyl)pyridine] | 85 | 771 | 29 |  |  | IC50 (human CYP17): 27 nM; % Inhib. Human CYP19 (values in brackets) (human placental CYP19): [65] %
COC(=O)c1ccc2cc(-c3cccnc3)ccc2c1 [Compound 16, Methyl-6-pyridin-3-yl-2-naphthoate] | 66 | 10500 | 73 | 12 | 1250 | 
c1cncc(-c2cnc3ccccc3c2)c1 [Compound 19, 3-Pyridin-3-ylquinoline] | 40 |  |  |  |  | 
CCOc1ccc2cc(-c3cccnc3)ccc2c1 [Compound 5, 3-(6-Ethoxy-2-naphthyl)pyridine] | 86 | 883 | 12 | 53 | 6640 | 
c1ccc2cc(-c3c[nH]cn3)ccc2c1 [Compound 27, 4(5)-(2-Naphthyl)-1H-imidazole] |  | 206 |  |  |  | % Inhib. Human hCYP11B2 (CYP11B2 [1]; Table 1, S. pombe cells expressing human CYP11B2, deoxycorticosterone 100 nM, inhibitor 500 nM): 41%; IC50 (CYP11B1 [2]; [12]): 206 nM
COc1ccc2cc(-c3cccnc3)ccc2c1Br [Compound 10, 3-(5-Bromo-6-methoxy-2-naphthyl)pyridine] | 68 | 1530 | 33 | 38 | 9110 | 
COc1cc2ccccc2cc1-c1cccnc1 [Compound 15, 3-(3-Methoxy-2-naphthyl)pyridine] | 38 |  |  |  |  | 
COc1ccc2cc(-c3cncnc3)ccc2c1 [Compound 30, 5-(6-Methoxy-2-naphthyl)pyrimidine] | 46 |  |  |  |  | 
COc1ccc2cc(-c3cccnc3)ccc2c1 [Compound 2, 3-(6-Methoxy-2-naphthyl)pyridine] |  |  |  |  | 586 | IC50 (human CYP17): 667 nM; cortisol production compared with aldosterone production ([7]; H295R model): cortisol production is inhibited more strongly than the aldosterone production; androsterone production (so in the source) ([7]; H295R, 6 h): inhibited only to a low extent; aldosterone secretion ([7]; H295R): significant concentration-dependent decrease; inhibition at 2.5 µM [7, 13]: 84.5 ± 2%; inhibition at 2.5 µM [7, 14]: 56.4 ± 3.5%; inhibition at 2.5 µM [7, 15]: 84.6 ± 2%; inhibition at 2.5 µM [7, 16]: 78.6 ± 5.4%; IC50 ([7]; H295R, 6 h incubation, read-out: IC50 of DHEA production): < 1 nM; IC50 ([7]; H295R, 6 h incubation, read-out: IC50 of aldosterone production): 963 nM; IC50 ([7]; H295R, 6 h incubation, read-out: IC50 of androstendione production): < 1 nM; IC50 ([7]; H295R, 6 h incubation, read-out: IC50 of cortisol production): < 1 nM; influence on CYP11B1 in comparison with fadrozole (CYP11B1 [4]): clearly lower extent; inhibition at 2.5 µM (CYP11B1 [5]): 48.5 ± 2.9%; inhibition at 2.5 µM (CYP11B2 [6]; [10]): 49.5 ± 2.4%; inhibition at 2.5 µM (CYP11B2 [6]; [11]): 81.4 ± 6.6%
CC(=O)N1CCN(c2ccc(OCC3COC(Cn4ccnc4)(c4ccc(Cl)cc4Cl)O3)cc2)CC1 (stereo not shown) [Ketoconazole, reference compound] |  |  |  |  |  | aldosterone secretion ([7]; H295R): significant concentration-dependent decrease; IC50 ([7]; 6 h, read-out: IC50 of DHEA production): 51.8 nM; IC50 ([7]; 6 h, read-out: IC50 of aldosterone production): 13100 nM; IC50 ([7]; 6 h, read-out: IC50 of androstendione production): 59.6 nM; IC50 ([7]; 6 h, read-out: IC50 of cortisol production): 155 nM; inhibition at 2.5 µM [7, 13]: 94.4 ± 0.6%; inhibition at 2.5 µM [7, 14]: 33.3 ± 3.3%; inhibition at 2.5 µM [7, 15]: 89.2 ± 1.2%; inhibition at 2.5 µM [7, 16]: 88.1 ± 1%
COc1ccc2c(Cl)c(-c3cccnc3)ccc2c1Cl [Compound 12, 3-(1,5-Dichloro-6-methoxy-2-naphthyl)pyridine] | 82 | 1540 | 28 |  | 970 | IC50 (human CYP17): 233 nM
c1ccc2cc(-n3ccnc3)ccc2c1 [Compound 23, 1-(2-Naphthyl)-1H-imidazole] | 80 | 1050 | 38 | 13 |  | 
COc1ccc2c(c1)CCC(n1ccnc1)=C2 [Compound 46, 1-(6-Methoxy-3,4-dihydronaphthalene-2-yl)-1H-imidazole] |  |  |  |  |  | CYP11B2 inhibition in S. pombe (CYP11B2 [1]): very low; inhibition at 0.5 µM (CYP11B2 [1]; read-out: % Inhibition Human hCYP11B2): 35%; IC50 (CYP11B1 [2]; [12]): 206 to 805 nM; IC50 (CYP11B1 [2]; read-out: IC50 value V79 11B1 hCY11B1): 763 nM
